Values of other authors as cited in patent US7329690B2, “Effectiveness of invertebrate pest-control agents” (FMC Corporation, priority 2001, dated 2008).

In the case of `O=[N+]([O-])NC1=NCCN1Cc1ccc(Cl)nc1` [imidacloprid], the water solubility is listed as 610 ppm.
